US11319330B2, “Tricyclic furan-substituted piperidinedione compound” (MEDSHINE DISCOVERY INC., priority 2018, dated 2022)
Structures can show the parent of a compound that is named as a salt.

Experiments:
[1] = Pharmacokinetic properties of test compound in mice (oral); assay type: in vivo, C57BL male mice; details: mouse; for oral plasma systemic exposure (AUC0-inf), in words / pharmacokinetic properties in rodent mice, in words: oral
Excerpt: In this study, C57BL male mice were selected as the test animals, and the LC/MS/MS method was used to quantitatively determine the drug concentration in the plasma of the test compound and the reference compound administered orally to evaluate the pharmacokinetic profile of the test compound in mice.
[…] (C57) mice (male, 20-30 g, 7-10 weeks old, from Beijing Vital River or Shanghai SLAC).
A clear solution or suspension of the test compound was administrated to C57 mice (fasted overnight) by oral gavage. Blood was collected from jugular vein at pre-dose and 0.5, 1, 2, 4, 6, 8, 24 hours post-dose, the collected blood samples were placed in an anticoagulant tube (Jiangsu Kangjian Medical Co., Ltd.) supplemented with EDTA-K2, and the mixture was vortexed and centrifuged at 13000 rpm for 10 minutes. The LC-MS/MS method was used to determine the plasma concentration, and the relevant pharmacokinetic parameters were calculated using the non-compartmental model linear logarithmic trapezoidal method by WinNonlin™ Version 6.3 (Pharsight, Mountain View, Calif.).

OCI-LY10 = assay: Anti-proliferative effect in lymphoma cell line OCI-LY10 (CellTiter-Glo); assay type: cell-based; details: Homo sapiens, OCI-Ly10, 120 h; incubate with the compound for 5 days
Protocol: Experiment object: In this experiment, the inhibitory effects of the test compounds on cell proliferation in the diffuse large B-cell lymphoma cell lines OCI-LY10 and DOHH2, and the mantle cell lymphoma cell line Mino were tested.
The tumor cell lines were cultured in an incubator at 37° C. and 5% CO2 under the above-mentioned culture conditions. The cells were passaged regularly, and cells in the logarithmic growth phase were taken for plating.
(3). 90 μL of cell suspension was added to each well of the culture plate as shown in the table above, and cell-free culture solution was added to the blank control well.
(4). The culture plates were incubated overnight at 37° C., 5% CO2, and 100% relative humidity in an incubator.
A 400× compound working solution was prepared. The compound was gradually diluted with DMSO from the highest concentration to the lowest concentration. The compound was freshly formulated when use every time.
(1). Formulation of 10× compound working solution: 76 μL of cell culture solution was added to a 96-well plate with a V-shaped bottom, and 4 μL of the compound from a 200× compound solution plate was pipetted and added to the cell culture solution in the 96-well plate. 4 μL of DMSO was added to the vehicle control and blank control. After adding the compound or DMSO, a multi-channel pipette was used for mixing well. 78 μL of cell culture solution was added to a 96-well plate with a V-shaped bottom, and 2 μL of the compound from the 400× compound storage solution was pipetted and added to the cell culture solution in the 96-well plate. 2 μL of DMSO was added to the vehicle control and blank control. After adding the compound or DMSO, a multi-channel pipette was used for mixing well.
(2). Dosing: 10 μL of the 10× compound working solution was taken and added to the cell culture plate. 10 μL mixture of DMSO and cell culture solution was added to the vehicle control and blank control.
(3). The 96-well cell plates were placed back into the incubator to culture OCI-LY10 (5 times dilution, incubate with the compound for 5 days), DOHH2 (3 times dilution, incubate with the compound for 4 days), Mino (3 times dilution, incubate with the compound for 4 days).
The following steps followed the instructions of Promega CellTiter-Glo Luminescence Cell Viability Detection Kit (Promega-G7573).
(6). 50 μL (equal to half the volume of cell culture solution in each well) of CellTiter-Glo working solution was added into each well. The cell plates were wrapped with aluminum foil to protect the cell plate from light.
(9). The luminous signal was detected on the 2104 EnVision plate reader.
The following formula was used to calculate the inhibition rate (IR) of the test compound: IR (%)=(RLU of vehicle control−RLU of compound)/(RLU vehicle control−RLU blank control)*100%. […]

DOHH2 = assay: Anti-proliferative effect in lymphoma cell line DOHH2 (CellTiter-Glo); assay type: cell-based; details: Homo sapiens, DOHH-2, 96 h; incubate with the compound for 4 days
Protocol: (§1) Experiment object: In this experiment, the inhibitory effects of the test compounds on cell proliferation in the diffuse large B-cell lymphoma cell lines OCI-LY10 and DOHH2, and the mantle cell lymphoma cell line Mino were tested. The tumor cell lines were cultured in an incubator at 37° C. and 5% CO2 under the above-mentioned culture conditions. The cells were passaged regularly, and cells in the logarithmic growth phase were taken for plating. (3). 90 μL of cell suspension was added to each well of the culture plate as shown in the table above, and cell-free culture solution was added to the blank control well. (4). The culture plates were incubated overnight at 37° C., 5% CO2, and 100% relative humidity in an incubator. A 400× compound working solution was prepared. The compound was gradually diluted with DMSO from the highest concentration to the lowest concentration. […] The following steps followed the instructions of Promega CellTiter-Glo Luminescence Cell Viability Detection Kit (Promega-G7573). […] The luminous signal was detected on the 2104 EnVision plate reader. […] The inhibition rate of different concentrations of the compound was calculated in Excel, and then GraphPad Prism software was used to draw the inhibition curve and calculate the relevant parameters, including the minimum inhibition rate, the maximum inhibition rate and IC50.

[2] = test system: human lymphoma OCI-LY10 cells; assay: In vivo pharmacodynamic study in subcutaneous xenograft tumor CB-17 SCID model of human lymphoma OCI-LY10 cells; design: species or system CB-17 SCID mouse
Protocol: Cells culture: Human lymphoma OCI-LY10 cells (National Cancer Institute) were cultured in a monolayer method in vitro (culture conditions: RPMI-1640 medium with 10% fetal bovine serum, 100 U/mL penicillin and 100 μg/mL streptomycin; 37° C., 5% CO2 incubator). Pancreatin-EDTA was used twice a week for conventional digestion and passage. When a cell saturation of 80%-90% and the required cell number were achieved, the cells were collected, counted and seeded. Animal: CB-17 SCID mouse, female, 6-8 weeks old, weighing 18-22 grams. 0.2 mL (10×10^6 cells) of OCI-LY10 cells (with matrigel in a volume ratio of 1:1) were subcutaneously inoculated on the right back of each mouse. The grouping and administration were started when the average tumor volume reached about 139 mm^3. One dosing cycle was seven days, and the compound was administered once a day with an interval of 24 hours. The test compound was administered orally for a total of four cycles. The dose of the test compound WX001 was 60 mg/kg. The tumor volume was measured twice a week with a two-dimensional caliper, expressed in cubic millimeters, and calculated by the following formula: V=0.5a×b^2, in which a and b were the long diameter and short diameter of the tumor, respectively. The anti-tumor efficacy was determined by dividing the average increase of tumor volume of animals treated with the compound by that of untreated animals. TGI: Tumor Growth Inhibition. TGI (%)=[1−(average tumor volume at the end of administration in a treatment group−average tumor volume at the beginning of administration in this treatment group)/(average tumor volume at the end of administration in the solvent control group−average tumor volume at the beginning of administration in the solvent control group)]×100%.

Mino = assay: Anti-proliferative effect in lymphoma cell line Mino (CellTiter-Glo); assay type: cell-based; details: Homo sapiens, 96 h, incubate with the compound for 4 days
Protocol: as §1

[3] = 60 mg/kg oral once a day, Day 27

| oral plasma systemic exposure (AUC0-inf), in words [1] | pharmacokinetic properties in rodent mice, in words [1] | Area under the concentration-time curve (0-inf) ([1]; oral 10 mg/kg, plasma) | IC50 (OCI-LY10) | SMILES | other results |
| --- | --- | --- | --- | --- | --- |
| higher | better pharmacokinetic properties | 13.29 µM·h |  | O=C1CCC(c2coc3cc4ccc(OCCN5CCOCC5)cc4cc23)C(=O)N1 (stereo not drawn) [WX015] | Peak concentration ([1]; oral 10 mg/kg, plasma): 5.14 µM; Time to peak ([1]; oral 10 mg/kg, plasma): 0.50 h |
|  |  |  | 6 nM | Cc1nc2cc3occ(C4CCC(=O)NC4=O)c3cc2o1 (stereo not drawn) [WX005] |  |
| higher | better pharmacokinetic properties | 7.42 µM·h |  | CN(C)CCOc1ccc2cc3occ(C4CCC(=O)NC4=O)c3cc2c1 (stereo not drawn) [Hydrochloride salt of WX022] |  |
|  |  |  | 86 nM | O=C1CCC(c2coc3cc4c(cc23)OCO4)C(=O)N1 (stereo not drawn) [WX002] |  |
|  |  |  | 28 nM | O=C1CCC(c2coc3cc4ccccc4cc23)C(=O)N1 (stereo not drawn) [WX001] | IC50 (DOHH2): 63 nM; Tumor volume (Day 0) ([2]; 60 mg/kg oral once a day, Day 0, start of administration): 139 mm^3; TGI (Day 27) [2, 3]: 105.5%; Tumor volume (Day 27) [2, 3]: 87 mm^3; tumor-shrinking effect, in words ([2]; human lymphoma OCI-LY10 model): significant tumor-shrinking effect; IC50 (Mino): 72 nM |
|  |  |  | 83 nM | O=C1CCC(c2coc3cc4c(cc23)OCCN4)C(=O)N1 (stereo not drawn) [WX003] |  |
